{
  "source": "patent US7648978B2",
  "about": "“Small molecule modulators of cytokine activity” (Angion Biomedica Corp., priority 2004, dated 2010)",
  "format_in_all_cases": "cell-based",
  "key": {"[1]": {"test_system": "Endothelial cells (HUVECs)", "assay": "HUVEC proliferation (3H-thymidine incorporation)", "settings": "Homo sapiens, Table 1, read-out: HUVEC ED50", "procedure": "(§1) a. Proliferation. The following assay was performed to assess the activity of the compounds of the invention in cell proliferation. Endothelial cells (HUVECs) were seeded in 96-well plates at a density of 10,000 cells per well in the normal growth medium (EGM-2-Clonetics) containing 2% fetal bovine serum, FGF, VEGF, IGF, ascorbic acid, EGF, GA, heparin and hydrocortisone. The cells were grown normally in the growth medium for 24 hr at 37° C. and 5% CO2. The cells were then rinsed with RPMI-1% BSA and starved for 1-2 hr. The stock solutions of the compounds of the invention were made at a concentration of 10 mg/ml in DMSO and diluted in RPMI-1% BSA at final concentrations of 0.001 uM to 50 uM. The cells were then washed and treated with the compounds and incubated for another 20 hr at 37° C. Then ^3H thymidine (0.5 microgram/ml in RPMI-BSA) was added to the cells and incubated at 37° C. for 4 hr. The unincorporated thymidine was removed by washing the cells four times with 1×PBS. Then the cells were lysed with 0.5M NaOH for 30 min and the radioactivity counted in the beta counter. A similar proliferation assay using monkey bronchial epithelial cells (4MBR-5) and oligodendrocyte cells was also employed."}, "[2]": {"test_system": "oligodendrocytes", "assay": "Oligodendrocyte proliferation", "settings": "Mus musculus, Table 2, read-out: Oligodendrocyte ED50", "procedure": "as §1\ne. Stimulation of Oligodendrocyte Proliferation. Mouse primary oligodendrocytes (Celprogen, Calif.) were seeded in 96-well plates at 5000 cells/well in serum-free medium for 16 hours. Cells were treated with test compound or HGF/SF (positive control) for 16-24 hours. WST1 cell proliferation reagent (Roche, N.J.) was added to oligodendrocytes, and incubation was continued for another 4-5 hours. Cells with WST1 reagent were read using a plate reader at an OD of 490 nm."}, "[3]": {"test_system": "monocytes / HUVECs", "assay": "Monocyte migration and binding to CRP-treated HUVECs; VCAM-1 and MCP-1 expression", "settings": "CRP 25 ug/ml, test compound 10 uM or HGF 50 ng/ml", "procedure": "a. Compound treatment decreases monocyte migration and binding to ECs. […] HUVECs were incubated with CRP (25 ug/ml), CRP together with test compound (10 uM) or HGF (50 ng/ml). The cellular extracts with lysis buffer and analyzed for VCAM-1 and MCP-1 expression via Western blot analysis. For Monocyte binding and migration experiments, monocytes were labeled with a fluorescent dye Vybrant Did (Molecular Probes) and treated to the HUVECs treated as above."}},
  "data": [
    {"compound": "CC1CCCCN1c1ccc(-c2n[nH]c(=O)c3ccccc23)cc1[N+](=O)[O-]", "note": "(stereo not shown)", "values": [
      {"measurement": "EC50", "setting": "[1]", "value": 2, "unit": "µM"}
    ]},
    {"compound": "CCC1CCCCN1c1ccc(-c2n[nH]c(=O)c3ccccc23)cc1[N+](=O)[O-]", "note": "(stereo not shown)", "values": [
      {"measurement": "EC50", "setting": "[1]", "value": 3, "unit": "µM"}
    ]},
    {"compound": "CCCC1CCN(c2ccc(-c3n[nH]c(=O)c4ccccc34)cc2[N+](=O)[O-])CC1", "values": [
      {"measurement": "EC50", "setting": "[1]", "value": 4, "unit": "µM"}
    ]},
    {"compound": "CC1CCCN(c2ccc(-c3n[nH]c(=O)c4ccccc34)cc2[N+](=O)[O-])C1", "note": "(stereo not shown)", "values": [
      {"measurement": "EC50", "setting": "[1]", "value": 3, "unit": "µM"}
    ]},
    {"compound": "O=c1[nH]nc(-c2ccc(N3CCCCCC3)c([N+](=O)[O-])c2)c2ccccc12", "note": "[drawing 50]", "values": [
      {"measurement": "EC50", "setting": "[1]", "value": 2.5, "unit": "µM"}
    ]},
    {"compound": "O=c1[nH]nc(-c2ccc(N3CCCCC3)c([N+](=O)[O-])c2)c2ccccc12", "note": "[drawing 51]", "values": [
      {"measurement": "EC50", "setting": "[1]", "value": 10, "unit": "µM"}
    ]},
    {"compound": "CC1CCN(c2ccc(-c3n[nH]c(=O)c4ccccc34)cc2[N+](=O)[O-])CC1", "note": "[drawing 52]", "values": [
      {"measurement": "EC50", "setting": "[1]", "value": 5, "unit": "µM"}
    ]},
    {"compound": "O=c1[nH]nc(-c2ccc(N3CCCCCC3)c([N+](=O)[O-])c2)c2ccccc12", "note": "[drawing 57]", "values": [
      {"measurement": "EC50", "setting": "[2]", "value": 0.2, "unit": "µM"}
    ]},
    {"compound": "O=c1[nH]nc(-c2ccc(N3CCCCC3)c([N+](=O)[O-])c2)c2ccccc12", "note": "[drawing 58]", "values": [
      {"measurement": "EC50", "setting": "[2]", "value": 0.2, "unit": "µM"}
    ]},
    {"compound": "CC1CCN(c2ccc(-c3n[nH]c(=O)c4ccccc34)cc2[N+](=O)[O-])CC1", "note": "[drawing 59]", "values": [
      {"measurement": "EC50", "setting": "[2]", "value": 0.2, "unit": "µM"}
    ]},
    {"compound": "HGF: Scatter factor / hepatocyte growth factor, a pleiotropic growth factor; used as positive control", "values": [
      {"measurement": "monocyte migration and binding to endothelial cells", "setting": "[3]; FIG. 17", "value": "decreased"},
      {"measurement": "MCP-1 expression", "setting": "[3]; Western blot", "value": "decreased"},
      {"measurement": "VCAM-1 expression", "setting": "[3]; Western blot", "value": "decreased"}
    ]}
  ]
}
